Experimental data as given in US8092842B2, “Extraction of phytochemicals by enzymatic hydrolysis” (Pos Pilot Plant Corporation, priority 2007, dated 2012).

Tested on: lymphocytes isolated from Balb/C mice
Experiment: lymphocyte cell proliferation assay
Assay type: cell-based
Settings: LPS at 1 μg/ml (table prints concentration n/a)
Experimental: The effects of the ginseng extracts produced during these studies, on cell proliferation of lymphocytes isolated from Balb/C mice were assessed by the methods disclosed in Chapters 2 and 3 in Current Protocols in Immunology, (Coligan et al., Eds, 2007, John Wiley & Sons). A first positive control was lipopolysaccharide (LPS) at a concentration of 1 μg/ml. LPS (Prod. L4641) was supplied by Sigma-Aldrich Canada (Oakville, ON, Canada). A commercially available poly-furanosyl-pyranosyl-saccharide-rich ginseng extract, Cold-FX® (Cold-FX is a registered trademark of CV Technologies Inc., Edmonton, Alberta, Canada), was obtained from a local supermarket, and was used for comparison as a second positive control. The effects of the positive controls and the ginseng extracts produced by the three studies described herein on cell proliferation are shown in Table 1. […]
The bioactivity of the dried ginseng extract produced with the pilot scale process disclosed herein was assessed using the assay, related methods, positive and negative controls as described in Example 1.
The biological activity of the dried ginseng extracts produced from alcohol-washed dried ginseng meal during the first study of this example was assessed using the assay and methods described in Example 1, and the results compared to the positive control #2 described in Example 1.

Substance: lipopolysaccharide [Positive control #1 (LPS)]
- Optical Density (lymphocyte cell proliferation): 0.361
